Among the data in patent publication US20240025884A1 (Dong-A ST Co., Ltd., priority 2022, published 2024) are IC50 values, retold here.

In the experiment the target is GCN2 (Homo sapiens (Human), UniProt Q9P2K8). Description: GCN2 Biochemical Assay (TR-FRET, GFP-eIF2S1 substrate phosphorylation). To be noted: read-out: IC50 (GCN2 Inhibitory Activity). In outline:
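TR-FRET readout (Ex 340, Em 490/520 nm) after 2–3 h with Tb-labelled phospho-eIF2S1 antibody in stop mix, following a 70 min room-temperature kinase step. Reaction: in-house GCN2, GFP-eIF2S1, ATP, tRNA in Tris pH 7.5 (2× stocks 1.6 nM, 50 nM, 0.2 mM); compounds tested at 10 concentrations, with a phospho-substrate artifact counter-plate.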

Sequence of GCN2 (Q9P2K8 whole entry): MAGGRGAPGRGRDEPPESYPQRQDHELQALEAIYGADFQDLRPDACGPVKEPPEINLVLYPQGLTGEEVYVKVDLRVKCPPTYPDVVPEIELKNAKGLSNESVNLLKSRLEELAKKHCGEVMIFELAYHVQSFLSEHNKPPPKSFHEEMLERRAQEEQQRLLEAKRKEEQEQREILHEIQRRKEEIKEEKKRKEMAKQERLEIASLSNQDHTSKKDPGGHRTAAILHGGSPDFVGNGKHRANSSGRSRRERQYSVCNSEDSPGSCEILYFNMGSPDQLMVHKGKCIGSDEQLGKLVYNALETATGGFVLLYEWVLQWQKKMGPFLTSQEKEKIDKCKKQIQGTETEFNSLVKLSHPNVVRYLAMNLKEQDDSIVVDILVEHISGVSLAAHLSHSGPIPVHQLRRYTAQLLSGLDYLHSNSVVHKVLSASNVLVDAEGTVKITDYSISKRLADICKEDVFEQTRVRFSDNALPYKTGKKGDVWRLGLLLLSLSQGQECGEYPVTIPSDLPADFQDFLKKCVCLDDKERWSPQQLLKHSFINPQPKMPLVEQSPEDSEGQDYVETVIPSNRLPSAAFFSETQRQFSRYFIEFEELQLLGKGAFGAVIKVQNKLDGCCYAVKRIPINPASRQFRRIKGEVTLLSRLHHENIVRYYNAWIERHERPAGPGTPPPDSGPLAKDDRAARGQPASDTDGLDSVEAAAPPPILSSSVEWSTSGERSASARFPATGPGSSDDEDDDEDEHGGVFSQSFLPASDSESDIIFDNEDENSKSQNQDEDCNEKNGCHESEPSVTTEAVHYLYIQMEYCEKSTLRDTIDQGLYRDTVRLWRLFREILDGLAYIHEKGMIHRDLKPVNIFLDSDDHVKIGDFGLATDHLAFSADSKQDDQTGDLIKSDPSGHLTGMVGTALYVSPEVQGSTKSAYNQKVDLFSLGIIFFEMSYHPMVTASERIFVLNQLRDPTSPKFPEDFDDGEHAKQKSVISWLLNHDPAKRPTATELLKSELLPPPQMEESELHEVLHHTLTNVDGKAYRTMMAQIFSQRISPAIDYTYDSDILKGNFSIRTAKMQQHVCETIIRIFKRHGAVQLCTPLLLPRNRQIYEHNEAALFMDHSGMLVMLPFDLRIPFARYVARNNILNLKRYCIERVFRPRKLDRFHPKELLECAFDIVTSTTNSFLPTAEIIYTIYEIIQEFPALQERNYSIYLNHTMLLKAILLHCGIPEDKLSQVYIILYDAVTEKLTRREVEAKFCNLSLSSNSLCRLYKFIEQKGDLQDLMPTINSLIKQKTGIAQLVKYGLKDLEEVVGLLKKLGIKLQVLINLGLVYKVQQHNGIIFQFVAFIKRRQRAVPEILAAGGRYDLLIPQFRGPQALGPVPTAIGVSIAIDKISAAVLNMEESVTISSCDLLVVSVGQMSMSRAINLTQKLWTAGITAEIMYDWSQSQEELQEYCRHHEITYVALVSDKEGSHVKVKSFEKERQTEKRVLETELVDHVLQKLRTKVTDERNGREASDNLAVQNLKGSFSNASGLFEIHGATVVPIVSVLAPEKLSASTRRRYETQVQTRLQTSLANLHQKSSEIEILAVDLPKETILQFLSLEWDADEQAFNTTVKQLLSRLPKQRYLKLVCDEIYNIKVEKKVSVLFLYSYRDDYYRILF

In the case of `Cc1cnc(Nc2cc(C)n(C)n2)nc1-c1c[nH]c2c(NC(=O)CN3CC=C(c4cnn(C)c4)CC3)cccc12` [Example 35, N-(3-(2-((1,5-dimethyl-1H-pyrazol-3-yl)amino)-5-methylpyrimidin-4-yl)-1H-indol-7-yl)-2-(4-(1-methyl-1H-pyrazol-4-yl)-3,6-dihydropyridin-1(2H)-yl)acetamide], the IC50 fell in the range of 100 to 1000 nM.
`Cc1cnc(Nc2cc(C)n(C)n2)nc1-c1c[nH]c2c(NC(=O)CN3CC[C@H](C(=O)N4CCOCC4)C3)cccc12` [Example 63, (S)-N-(3-(2-((1,5-dimethyl-1H-pyrazol-3-yl)amino)-5-methylpyrimidin-4-yl)-1H-indol-7-yl)-2-(3-(morpholine-4-carbonyl)pyrrolidin-1-yl)acetamide]: the IC50 is 100 to 1000 nM.
For `Cc1cnc(Nc2cc(C)n(C)n2)nc1-c1c[nH]c2c(N3Cc4c(NC(=O)c5cnco5)cccc4C3=O)cccc12` [Example 323, N-(2-(3-(2-((1,5-dimethyl-1H-pyrazol-3-yl)amino)-5-methylpyrimidin-4-yl)-1H-indol-7-yl)-1-oxoisoindolin-4-yl)oxazole-5-carboxamide], the IC50 is below 10 nM.
In the case of `CCN(C)c1ccnc(O[C@H]2CCN(CC(=O)Nc3cccc4c(-c5nc(Nc6cc(C)n(C)n6)ncc5C)c[nH]c34)C2)n1` [Example 171, (S)-N-(3-(2-((1,5-dimethyl-1H-pyrazol-3-yl)amino)-5-methylpyrimidin-4-yl)-1H-indol-7-yl)-2-(3-((4-(ethyl(methyl)amino)pyrimidin-2-yl)oxy)pyrrolidin-1-yl)acetamide], the IC50 was below 10 nM.
As for `Cc1cnc(Nc2cc(C)n(C)n2)nc1-c1c[nH]c2c(NC(=O)CN3CC[C@H](Oc4cc(N5CCCC5)ncn4)C3)cccc12` [Example 158, (S)-N-(3-(2-((1,5-dimethyl-1H-pyrazol-3-yl)amino)-5-methylpyrimidin-4-yl)-1H-indol-7-yl)-2-(3-((6-(pyrrolidin-1-yl)pyrimidin-4-yl)oxy)pyrrolidin-1-yl)acetamide], the IC50 was below 10 nM.
Under `Cc1cnc(Nc2cc(C)n(C)n2)nc1-c1c[nH]c2c(N3Cc4c(cccc4-c4ccnc(N5CCNCC5)c4)C3=O)cccc12` [Example 408, 2-(3-(2-((1,5-dimethyl-1H-pyrazol-3-yl)amino)-5-methylpyrimidin-4-yl)-1H-indol-7-yl)-4-(2-(piperazin-1-yl)pyridin-4-yl)isoindolin-1-one] stands below 10 nM; under `Cc1cnc(Nc2cc(C)n(C)n2)nc1-c1c[nH]c2c(N3Cc4cccc(F)c4C3=O)cccc12` [Example 282, 2-(3-(2-((1,5-dimethyl-1H-pyrazol-3-yl)amino)-5-methylpyrimidin-4-yl)-1H-indol-7-yl)-7-fluoroisoindolin-1-one], below 10 nM.
The figure for `Cc1cnc(Nc2cc(C)n(C)n2)nc1-c1c[nH]c2c(NC(=O)CN3CC(Oc4ccncn4)C3)cccc12` [Example 29, N-(3-(2-((1,5-dimethyl-1H-pyrazol-3-yl)amino)-5-methylpyrimidin-4-yl)-1H-indol-7-yl)-2-(3-(pyrimidin-4-yloxy)azetidin-1-yl)acetamide] is 10 to 100 nM; for `Cc1cnc(Nc2cc(C)n(C)n2)nc1-c1c[nH]c2c(NC(=O)CN3CC[C@@H](C(=O)N4CCNC(=O)C4)C3)cccc12` [Example 66, (R)-N-(3-(2-((1,5-dimethyl-1H-pyrazol-3-yl)amino)-5-methylpyrimidin-4-yl)-1H-indol-7-yl)-2-(3-(3-oxopiperazine-1-carbonyl)pyrrolidin-1-yl)acetamide] it is 100 to 1000 nM.
The figure for `Cc1cnc(Nc2cc(C)n(C)n2)nc1-c1c[nH]c2c(N3Cc4c(NC(=O)c5ccccn5)cccc4C3=O)cccc12` [Example 297, N-(2-(3-(2-((1,5-dimethyl-1H-pyrazol-3-yl)amino)-5-methylpyrimidin-4-yl)-1H-indol-7-yl)-1-oxoisoindolin-4-yl)picolinamide] is below 10 nM; for `Cc1cnc(Nc2cc(C)n(C)n2)nc1-c1c[nH]c2c(NC(=O)CN3CC[C@H](Oc4cc(F)cc(F)c4)C3)cccc12` [Example 86] it is 100 to 1000 nM; for `Cc1cnc(Nc2cc(C)n(C)n2)nc1-c1c[nH]c2c(NC(=O)CN3CC[C@H](Oc4cccc(N)c4)C3)cccc12` [Example 89] it is 100 to 1000 nM.
As for `Cc1cnc(Nc2cc(C)n(C)n2)nc1-c1c[nH]c2c(N3Cc4c(cccc4-c4ccnc(N)n4)C3=O)cccc12` [Example 422, 4-(2-aminopyrimidin-4-yl)-2-(3-(2-((1,5-dimethyl-1H-pyrazol-3-yl)amino)-5-methylpyrimidin-4-yl)-1H-indol-7-yl)isoindolin-1-one], the IC50 is below 10 nM.
The figure for `CCN(CC)c1ccnc(O[C@H]2CCN(CC(=O)Nc3cccc4c(-c5nc(Nc6cc(C)n(C)n6)ncc5C)c[nH]c34)C2)n1` [Example 172, (S)-2-(3-((4-(diethylamino)pyrimidin-2-yl)oxy)pyrrolidin-1-yl)-N-(3-(2-((1,5-dimethyl-1H-pyrazol-3-yl)amino)-5-methylpyrimidin-4-yl)-1H-indol-7-yl)acetamide] is below 10 nM.
Turning to `Cc1cc(-c2cccc3c2CN(c2cccc4c(-c5nc(Nc6cc(C)n(C)n6)ncc5C)c[nH]c24)C3=O)cc(C)n1` [Example 479, 2-(3-(2-((1,5-dimethyl-1H-pyrazol-3-yl)amino)-5-methylpyrimidin-4-yl)-1H-indol-7-yl)-4-(2,6-dimethylpyridin-4-yl)isoindolin-1-one], the IC50 is below 10 nM.
As to `COc1cnc(Nc2cc(C)n(C)n2)nc1-c1c[nH]c2c(NC(=O)CN3CC[C@H](Oc4cnnc(NC5CC5)n4)C3)cccc12` [Example 14, (S)-2-(3-((3-(cyclopropylamino)-1,2,4-triazin-5-yl)oxy)pyrrolidin-1-yl)-N-(3-(2-((1,5-dimethyl-1H-pyrazol-3-yl)amino)-5-methoxypyrimidin-4-yl)-1H-indol-7-yl)acetamide], the IC50 was below 10 nM.
Turning to `Cc1cnc(Nc2cc(C)n(C)n2)nc1-c1c[nH]c2c(NC(=O)CN3CC[C@H](Oc4ccnc(NC5CC5)n4)C3)cc(N)cc12` [Example 2, (S)-N-(5-amino-3-(2-((1,5-dimethyl-1H-pyrazol-3-yl)amino)-5-methylpyrimidin-4-yl)-1H-indol-7-yl)-2-(3-((2-(cyclopropylamino)pyrimidin-4-yl)oxy)pyrrolidin-1-yl)acetamide], the IC50 is 10 to 100 nM.
As for `Cc1cnc(Nc2cc(C)n(C)n2)nc1-c1c[nH]c2c(NC(=O)CN3CC[C@H](Oc4nccc(C(=O)N(C)C)n4)C3)cccc12` [Example 131, (S)-2-((1-(2-((3-(2-((1,5-dimethyl-1H-pyrazol-3-yl)amino)-5-methylpyrimidin-4-yl)-1H-indol-7-yl)amino)-2-oxoethyl)pyrrolidin-3-yl)oxy)-N,N-dimethylpyrimidine-4-carboxamide], the IC50 lay in the range of 10 to 100 nM.
Regarding `Cc1cnc(Nc2cc(C)n(C)n2)nc1-c1c[nH]c2c(N3Cc4c(NC(=O)C5CCC(C)CC5)cccc4C3=O)cccc12` (centres unmarked) [Example 303, N-(2-(3-(2-((1,5-dimethyl-1H-pyrazol-3-yl)amino)-5-methylpyrimidin-4-yl)-1H-indol-7-yl)-1-oxoisoindolin-4-yl)-4-methylcyclohexane-1-carboxamide], the IC50 is below 10 nM.
Consider `Cc1cc(S(=O)(=O)Nc2cccc3c2CN(c2cccc4c(-c5nc(Nc6cc(C)n(C)n6)ncc5C)c[nH]c24)C3=O)ccc1F` [Example 345, N-(2-(3-(2-((1,5-dimethyl-1H-pyrazol-3-yl)amino)-5-methylpyrimidin-4-yl)-1H-indol-7-yl)-1-oxoisoindolin-4-yl)-4-fluoro-3-methylbenzenesulfonamide], for which the IC50 lay within 10 to 100 nM.
The figure for `Cc1cnc(Nc2cc(C)n(C)n2)nc1-c1c[nH]c2c(NC(=O)CN3CC[C@H](Nc4ccncn4)C3)cccc12` [Example 47, (S)-N-(3-(2-((1,5-dimethyl-1H-pyrazol-3-yl)amino)-5-methylpyrimidin-4-yl)-1H-indol-7-yl)-2-(3-(pyrimidin-4-ylamino)pyrrolidin-1-yl)acetamide] is 10 to 100 nM; for `Cc1cnc(Nc2cc(C)n(C)n2)nc1-c1c[nH]c2c(NC(=O)CN3CC[C@H](Oc4nc(N)nc(N)n4)C3)cccc12` [Example 138, (S)-2-(3-((4,6-diamino-1,3,5-triazin-2-yl)oxy)pyrrolidin-1-yl)-N-(3-(2-((1,5-dimethyl-1H-pyrazol-3-yl)amino)-5-methylpyrimidin-4-yl)-1H-indol-7-yl)acetamide] it is below 10 nM; for `Cc1cnc(Nc2cc(C)n(C)n2)nc1-c1c[nH]c2c(NC(=O)CN3CC[C@H](Oc4nccc(-c5ccccc5)n4)C3)cccc12` [Example 254, (S)-N-(3-(2-((1,5-dimethyl-1H-pyrazol-3-yl)amino)-5-methylpyrimidin-4-yl)-1H-indol-7-yl)-2-(3-((4-phenylpyrimidin-2-yl)oxy)pyrrolidin-1-yl)acetamide] it is 10 to 100 nM.
Take `Cc1cnc(Nc2cc(C)n(C)n2)nc1-c1c[nH]c2c(N3Cc4c(cccc4-c4ccnc5[nH]ccc45)C3=O)cccc12` [Example 411, 2-(3-(2-((1,5-dimethyl-1H-pyrazol-3-yl)amino)-5-methylpyrimidin-4-yl)-1H-indol-7-yl)-4-(1H-pyrrolo[2,3-b]pyridin-4-yl)isoindolin-1-one]: the IC50 is below 10 nM.
Under `Cc1cc(Nc2ncc(F)c(-c3c[nH]c4c(NC(=O)CN5CC[C@H](Oc6ccncc6)C5)cccc34)n2)nn1C` [Example 8, (S)-N-(3-(2-((1,5-dimethyl-1H-pyrazol-3-yl)amino)-5-fluoropyrimidin-4-yl)-1H-indol-7-yl)-2-(3-(pyridin-4-yloxy)pyrrolidin-1-yl)acetamide] stands below 10 nM; under `Cc1cnc(Nc2cc(C)n(C)n2)nc1-c1c[nH]c2c(N3Cc4c(cccc4-c4ccnc(O)c4)C3=O)cccc12` [Example 446, 2-(3-(2-((1,5-dimethyl-1H-pyrazol-3-yl)amino)-5-methylpyrimidin-4-yl)-1H-indol-7-yl)-4-(2-hydroxypyridin-4-yl)isoindolin-1-one], below 10 nM.
